# Measured values published in paper PMC9289672, “Optimization of Antibacterial Activity in Tibetan Swine α-Helix Peptide TP by Site-Directed Mutagenesis” (Frontiers in Microbiology, 2022).
# Like-named read-outs stand apart in the source and are kept apart here. Where no end group is shown, it is not given here.
# Columns and labels:
# all strains in Table 2 = assay: Geometric mean of MIC and therapeutic index; assay type: cell-based; settings: MHC/GM; 128 μm used when 50% hemolysis not observed at 128 μm
# Description: (§1) The bacteria were cultured overnight in the MHB medium and transferred to the new MHB the next day until the bacteria reached the exponential growth stage. The bacteria were diluted with MHB to 2 × 10^5 CFU/ml. About 50 μl of polypeptide and equal volume of bacterial suspension was added to a 96-well plate to give the final concentration of polypeptide between 1 and 128 μm. The last two columns are negative (MHB only) and positive (bacterial and MHB) controls and incubated at 37°C for 18–24 h. Optical density was measured at an absorbance wavelength of 492 nm using a microplate reader (Tecan GENios F129004, Tecan, Austria). At least three independent measurements were taken. Each trial was conducted two times in parallel. A total of three independent assays were carried out.
# Trp is a hydrophobic amino acid with aromatic side chains. It is a special amino acid in peptide design. Previous studies have pointed out that introducing amino acids will also bring toxicity while improving activity. Therefore, at the beginning of the design, we predicted that selecting Trp as hydrophobic amino acid to substitute H-H position would bring certain toxicity to the peptide. Thus, as expected, the introduction of Trp increases the activity and toxicity of these peptides. […] Meanwhile, the virulence of TP(i+4) 1&2&5&6 and TP(i+4) 1&2&6&7 was lower than that of TP(i+4) 1&2&5&7. We infer that the location of hydrophobic centers can effectively reduce peptide toxicity by Trp substitution. For further evaluating the cell selectivity of the peptides, we also calculated the SI which defined as the ratio of MHC to the geometric mean (GM) (Dufourc, [2008]).
# [1] = system: Enterococcus faecalis ATCC 29212
# From the text: (§2) The bacteria strains Escherichia coli ATCC 25922, Escherichia coli UB1005, Salmonella typhimurium ATCC 14028, Salmonella typhimurium C7731, Pseudomonas aeruginosa ATCC 27853, Pseudomonas aeruginosa PAO1, Staphylococcus aureus ATCC 29213, Staphylococcus aureus ATCC 25923, Methicillin-resistant Staphylococcus aureus (MRSA) 43300, Enterococcus faecalis ATCC 29212, and Staphylococcus epidermidis ATCC 12228 were obtained from the College of Veterinary Medicine, Northeast Agricultural University (Harbin, China).
# as §1
# [2] = system: Methicillin-resistant Staphylococcus aureus (MRSA) 43300; settings: Methicillin-resistant 43300
# From the text: as §2, §1
# [3] = system: Pseudomonas aeruginosa PAO1
# From the text: as §2, §1
# [4] = system: Staphylococcus aureus ATCC 25923
# From the text: as §2, §1
# Escherichia coli UB1005 = settings: MHB, bacteria diluted to 2 × 10^5 CFU/ml, peptide 1-128 μm, 37°C 18-24 h, OD 492 nm; three independent assays, two in parallel
# From the text: as §2, §1
# [5] = system: Escherichia coli ATCC 25922
# From the text: as §2, §1
# [6] = system: Staphylococcus aureus ATCC 29213
# From the text: as §2, §1
# [7] = system: Staphylococcus epidermidis ATCC 12228
# From the text: as §2, §1
# [8] = system: Pseudomonas aeruginosa ATCC 27853
# From the text: as §2, §1
# [9] = system: Salmonella typhimurium ATCC 14028
# From the text: as §2, §1
# [10] = system: Salmonella typhimurium C7731; settings: MHB, bacteria diluted to 2 × 10^5 CFU/ml, peptide 1-128 μm, 37°C 18-24 h, OD 492 nm; three independent assays, two in parallel
# From the text: as §2, §1
# Gram-negative bacteria = assay: Geometric mean of MIC and therapeutic index; assay type: cell-based; settings: MHC/GM; 128 μm used when 50% hemolysis not observed at 128 μm
# Description: as §1
# (§3) Trp is a hydrophobic amino acid with aromatic side chains. It is a special amino acid in peptide design. Previous studies have pointed out that introducing amino acids will also bring toxicity while improving activity. […] For further evaluating the cell selectivity of the peptides, we also calculated the SI which defined as the ratio of MHC to the geometric mean (GM) (Dufourc, [2008]).
# Gram-positive bacteria = assay: Geometric mean of MIC and therapeutic index; assay type: cell-based; settings: MHC/GM; 128 μm used when 50% hemolysis not observed at 128 μm
# Description: as §1, §3
# [11] = system: hRBCs (human red blood cells); assay: Hemolytic activity; settings: three independent assays, two in parallel
# Description: (§5) The cytotoxicity of each peptide was assessed with IPEC-J12 and HEK 293T cells. […] Each trial was conducted two times in parallel. A total of three independent assays were carried out.
# [12] = system: IPEC-J2 and HEK 293T cells
# Description: as §5
# S. aureus 29213 = assay type: cell-based, Staphylococcus aureus; settings: 29213, 4 h
# Description: (§4) The salt and serum stability of polypeptides were determined by improved MIC method (Lv et al., [2014]). Peptides were incubated with BSA containing different final concentrations of salt ions (150 mM NaCl, 4.5 mM KCl, 6 μm NH4Cl, 8 μm ZnCl2, 1 mM MgCl2, 2 mM CaCl2, and 4 μm FeCl3) (Wang et al., [2018]). To determine the stability of the peptide in serum, peptide was incubated with different proportions of serum (50%, 100%) at 37°C for 4 h. The following steps are the same as those for antimicrobial activity. Each trial was conducted two times in parallel. A total of three independent assays were carried out.
# E. coli 25922 = assay type: cell-based, Escherichia coli; settings: 25922, 4 h
# Description: as §4
# [13] = system: hRBCs (human red blood cells)
# Description: as §5
Substance,"Therapeutic index (TI) / selectivity index (SI), All (all strains in Table 2)","MIC, E. faecalis 29212 [1]","MIC, S. aureus 43300 [2]","MIC, P. aeruginosa PAO1 [3]","MIC, S. aureus 25923 [4]","MIC, E. coli UB1005 (Escherichia coli UB1005)","MIC, E. coli 25922 [5]","MIC, S. aureus 29213 [6]","MIC, S. epidermidis 12228 [7]","MIC, P. aeruginosa 27853 [8]","MIC, S. typhimurium 14028 [9]","MIC, S. typhimurium 7731 [10]","Therapeutic index (TI), Gram-negative bacteria (Gram-negative bacteria)","Therapeutic index (TI), Gram-positive bacteria (Gram-positive bacteria)",MHC (concentration of peptide that causes hemolysis of 50% of human red blood cells) [11],further results
ASVVKKWWKGWWKLLK-NH2 [TP(i+4) 1&2&5&6],13.30,8 µM,8 µM,4 µM,16 µM,2 µM,1 µM,8 µM,8 µM,4 µM,2 µM,4 µM,25.40,6.96,64.00 µM,
ASVVKWLTKWVAKLLK-NH2 [TP(i+4) 1&2&7],16.19,4 µM,4 µM,4 µM,4 µM,4 µM,4 µM,2 µM,4 µM,4 µM,4 µM,8 µM,14.25,18.39,64.00 µM,
ASVVKWWWKWWWKLLK-NH2 [TP(i+4) 1&2&5&6&7],3.10,2 µM,4 µM,4 µM,4 µM,2 µM,1 µM,2 µM,2 µM,4 µM,2 µM,4 µM,3.17,3.03,8.00 µM,
ASVVKKWTKGWAKLLK-NH2 [TP(i+4) 1&2&6],3.89,128 µM,64 µM,8 µM,128 µM,8 µM,4 µM,64 µM,64 µM,32 µM,16 µM,32 µM,10.08,1.50,>128 µM,cell viability [12]: ~ 50%
ASVVKWLWKWVWKLLK-NH2 [TP(i+4) 1&2&5&7],2.76,8 µM,16 µM,>128 µM,16 µM,16 µM,16 µM,8 µM,8 µM,>128 µM,32 µM,>128 µM,1.26,6.06,64.00 µM,
ASVVKWWTKWWAKLLK-NH2 [TP(i+4) 1&2&6&7],18.80,2 µM,4 µM,4 µM,2 µM,4 µM,4 µM,2 µM,2 µM,8 µM,4 µM,8 µM,12.70,27.83,64.00 µM,
AKVVNKLTKGVAKLLK-NH2 [TP(i+4) 2&3],1.41,>128 µM,>128 µM,128 µM,>128 µM,8 µM,32 µM,>128 µM,>128 µM,128 µM,128 µM,128 µM,2.00,1.00,>128 µM,
ASVVKKLTKGVAKLLK-NH2 [TP(i+4) 1&2],3.56,>128 µM,>128 µM,8 µM,>128 µM,4 µM,4 µM,>128 µM,>128 µM,16 µM,32 µM,16 µM,12.70,1.00,,"MIC after incubation with 100% serum (S. aureus 29213): >64 µM; MIC in the presence of Ca2+ (S. aureus 29213): >64 µM; MIC in the presence of Fe3+ (S. aureus 29213): >64 µM; MIC in the presence of K+ (S. aureus 29213): >64 µM; MIC in the presence of Mg2+ (S. aureus 29213): >64 µM; MIC in the presence of NH4+ (S. aureus 29213): >64 µM; MIC in the presence of Na+ (S. aureus 29213): >64 µM; MIC in the presence of Zn2+ (S. aureus 29213): >64 µM; MIC, Control (S. aureus 29213): >64 µM; MIC after incubation with 100% serum (E. coli 25922): 32 µM; MIC in the presence of Ca2+ (E. coli 25922): >64 µM; MIC in the presence of Fe3+ (E. coli 25922): 8 µM; MIC in the presence of K+ (E. coli 25922): 8 µM; MIC in the presence of Mg2+ (E. coli 25922): 32 µM; MIC in the presence of NH4+ (E. coli 25922): 8 µM; MIC in the presence of Na+ (E. coli 25922): >64 µM; MIC in the presence of Zn2+ (E. coli 25922): 2 µM; MIC, Control (E. coli 25922): 4 µM; MHC (concentration of peptide that causes hemolysis of 50% of human red blood cells) [13]: >128 µM"
ASVVNKLTKGVAKLLK-NH2 [TP(i+4) 2],1.89,>128 µM,>128 µM,32 µM,>128 µM,8 µM,16 µM,>128 µM,>128 µM,64 µM,128 µM,64 µM,3.56,1.00,,MHC (concentration of peptide that causes hemolysis of 50% of human red blood cells) [13]: >128 µM
